Assay results from patent US5859007A, “CCK or gastrin modulating benzo [b][1,4] diazepines derivatives” (Glaxo Wellcome Inc., priority 1994, dated 1999).

Tested on: isolated guinea pig gallbladder
Assay: Functional activity in isolated guinea pig gallbladder preparation
Format: cell-based
Conditions: expressed as % CCK-induced maximal response; for activation at 1 µM / activation at 30 µM: Cavia porcellus; for activation at 1 µM: read-out: %Contraction (1 × 10^-6 M); for activation at 30 µM: read-out: % Contraction (3 × 10^-5 M)

COc1ccc(N(C(=O)CN2C(=O)C(Cc3n[nH]c4ccccc34)C(=O)N(c3ccsc3)c3ccccc32)C(C)C)cc1 (centres unmarked) [Example 58, 2-[3-(1H-Indazol-3-ylmethyl)-2,4-dioxo-5-thiophen-3-yl-2,3,4,5-tetrahydro-benzo[b][1,4]diazepin-1-yl]-N-isopropyl-N-(4-methoxy-phenyl)-acetamide]
activation at 1 µM (1 × 10^-6 M test compound): 80% | activation at 30 µM (3 × 10^-5 M test compound): 95%

COc1ccc(N(C(=O)CN2C(=O)C(Cc3n[nH]c4ccccc34)C(=O)N(c3cccs3)c3ccccc32)C(C)C)cc1 (centres unmarked) [Example 59, 2-[3-(1H-Indazol-3-ylmethyl)-2,4-dioxo-5-thiophen-2-yl-2,3,4,5-tetrahydro-benzo[b][1,4]diazepin-1-yl]-N-isopropyl-N-(4-methoxy-phenyl)-acetamide]
activation at 1 µM (1 × 10^-6 M test compound): 100% | activation at 30 µM (3 × 10^-5 M test compound): 102%

Cc1ccc(N(C(=O)CN2C(=O)C(Cc3n[nH]c4cc(F)ccc34)C(=O)N(c3ccccc3)c3ccccc32)C(C)C)cc1 (centres unmarked) [Example 60, 2-[3-(6-Fluoro-1H-indazol-3-ylmethyl)-2,4-dioxo-5-phenyl-2,3,4,5,tetrahydro-benzo[b][1,4]diazepin-1-yl]-N-isopropyl-N-p-tolyl-acetamide]
activation at 1 µM (1 × 10^-6 M test compound): 94% | activation at 30 µM (3 × 10^-5 M test compound): 81%

O=C1C(Cc2n[nH]c3ccccc23)C(=O)N(c2ccccc2)c2ccccc2N1CC(=O)N(c1ccccc1)C1CC1 (centres unmarked) [Example 61, N-Cyclopropyl-2-[3-(1H-indazol-3-ylmethyl)-2,4-dioxo-5-phenyl-2,3,4,5,tetrahydro-benzo[b][1,4]diazepin-1-yl]-N-phenyl-acetamide]
activation at 1 µM (1 × 10^-6 M test compound): 63% | activation at 30 µM (3 × 10^-5 M test compound): 77%

COc1ccc(N(C(=O)CN2C(=O)C(Cc3n[nH]c4ccccc34)C(=O)N(c3ccccc3)c3ccccc32)C2CCCC2)cc1 (centres unmarked) [Example 62, N-Cyclopentyl-2-[3-(1H-indazol-3-ylmethyl)-2,4-dioxo-5-phenyl-2,3,4,5,tetrahydro-benzo[b][1,4]diazepin-1-yl]-N-(4-methoxy-phenyl)-acetamide]
activation at 1 µM (1 × 10^-6 M test compound): 96% | activation at 30 µM (3 × 10^-5 M test compound): 86%

CC(C)N(C(=O)CN1C(=O)C(Cc2n[nH]c3cc(F)ccc23)C(=O)N(c2ccccc2)c2ccccc21)c1ccc(F)cc1 (centres unmarked) [Example 63, 2-[3-(6-Fluoro-1H-indazol-3-ylmethyl)-2,4-dioxo-5-phenyl-2,3,4,5,tetrahydro-benzo[b][1,4]diazepin-1-yl]-N-(4-fluoro-phenyl)-N-isopropyl-acetamide]
activation at 1 µM (1 × 10^-6 M test compound): 77% | activation at 30 µM (3 × 10^-5 M test compound): 96%

CC(=O)n1nc(CC2C(=O)N(CC(=O)N(c3ccc(F)cc3)C(C)C)c3ccccc3N(c3ccccc3)C2=O)c2ccc(F)cc21 (centres unmarked) [Example 64, 2-[3-(1-Acetyl-6-fluoro-1H-indazol-3-ylmethyl)-2,4-dioxo-5-phenyl-2,3,4,5,tetrahydro-benzo[b][1,4]diazepin-1-yl]-N-(4-fluoro-phenyl)-N-isopropyl-acetamide]
activation at 1 µM (1 × 10^-6 M test compound): 67% | activation at 30 µM (3 × 10^-5 M test compound): 98%

CC(C)(C)N(C(=O)CN1C(=O)C(Cc2n[nH]c3ccccc23)C(=O)N(c2ccccc2)c2ccccc21)c1ccccc1 (centres unmarked) [Example 65, N-tert-Butyl-2-[3-(1H-indazol-3-ylmethyl)-2,4-dioxo-5-phenyl-2,3,4,5,tetrahydro-benzo[b][1,4]diazepin-1-yl]-N-phenyl-acetamide]
activation at 1 µM (1 × 10^-6 M test compound): 88% | activation at 30 µM (3 × 10^-5 M test compound): 93%

COc1ccc(N(C(=O)CN2C(=O)C(Cc3n[nH]c4ccccc34)C(=O)N(c3cccnc3)c3cc(F)ccc32)C(C)C)cc1 (centres unmarked) [Example 66, 2-[7-Fluoro-3-(1H-indazol-3-ylmethyl)-2,4-dioxo-5-pyridin-3-yl-2,3,4,5-tetrahydro-benzo[b][1,4]diazepin-1-yl]-N-isopropyl-N-(4-methoxy-phenyl)-acetamide]
activation at 1 µM (1 × 10^-6 M test compound): 97% | activation at 30 µM (3 × 10^-5 M test compound): 116%

COc1ccc(N(C(=O)CN2C(=O)C(Cc3n[nH]c4ccccc34)C(=O)N(c3ccccc3)c3cc(F)c(F)cc32)C(C)C)cc1 (centres unmarked) [Example 67, 2-[7,8-Difluoro-3-(1H-indazol-3-ylmethyl)-2,4-dioxo-5-phenyl-2,3,4,5-tetrahydro-benzo[b][1,4]diazepin-1-yl]-N-isopropyl-N-(4-methoxy-phenyl)-acetamide]
activation at 1 µM (1 × 10^-6 M test compound): 78% | activation at 30 µM (3 × 10^-5 M test compound): 102%

CC(C)N(C(=O)CN1C(=O)C(Cc2n[nH]c3ccccc23)C(=O)N(c2ccccc2)c2ccccc21)c1ccccc1 (centres unmarked) [Example 68, 2-[3-(1H-indazol-3-ylmethyl)-2,4-dioxo-5-phenyl-2,3,4,5-tetrahydro-benzo[b][1,4]diazepin-1-yl]-N-isopropyl-N-phenyl-acetamide]
activation at 1 µM (1 × 10^-6 M test compound): 93% | activation at 30 µM (3 × 10^-5 M test compound): 99%

CC(C)N(C(=O)CN1C(=O)C(Cc2n[nH]c3cc(F)ccc23)C(=O)N(c2ccccc2)c2ccccc21)c1ccccc1 (centres unmarked) [Example 69, 2-[3-(6-Fluoro-1H-indazol-3-ylmethyl)-2,4-dioxo-5-phenyl-2,3,4,5-tetrahydro-benzo[b][1,4]diazepin-1-yl]-N-isopropyl-N-phenyl-acetamide]
activation at 1 µM (1 × 10^-6 M test compound): 98% | activation at 30 µM (3 × 10^-5 M test compound): 92%

CC(C)N(C(=O)CN1C(=O)C(Cc2n[nH]c3cc(F)ccc23)C(=O)N(c2ccccc2)c2ccccc21)c1ccc(OC(F)(F)F)cc1 (centres unmarked) [Example 70, 2-[3-(6-Fluoro-1H-indazol-3-ylmethyl)-2,4-dioxo-5-phenyl-2,3,4,5-tetrahydro-benzo[b][1,4]diazepin-1-yl]-N-isopropyl-N-(4-trifluoromethoxy-phenyl)-acetamide]
activation at 1 µM (1 × 10^-6 M test compound): 66% | activation at 30 µM (3 × 10^-5 M test compound): 73%

COc1ccc(N(C(=O)CN2C(=O)C(Cc3n[nH]c4ccccc34)C(=O)N(c3cccnc3)c3ccccc32)C(C)C)cc1 (centres unmarked) [Example 71, 2-[3-(1H-indazol-3-ylmethyl)-2,4-dioxo-5-pyridin-3-yl-2,3,4,5-tetrahydrobenzo[b][1,4]diazepin-1-yl]-N-isopropyl-N-(4-methoxy-phenyl) acetamide]
activation at 1 µM (1 × 10^-6 M test compound): 106% | activation at 30 µM (3 × 10^-5 M test compound): 92%

COc1ccc(N(C(=O)CN2C(=O)C(C)(Cc3n[nH]c4ccccc34)C(=O)N(c3cccnc3)c3ccccc32)C(C)C)cc1 (centres unmarked) [Example 74, 2-[3-(1H-Indazol-3-ylmethyl)-3-methyl-2,4-dioxo-5-pyridin-3-yl-2,3,4,5-tetrahydro-benzo[b][1,4]diazepin-1-yl]-N-isopropyl-N-(4-methoxy-phenyl)-acetamide]
activation at 1 µM (1 × 10^-6 M test compound): 86% | activation at 30 µM (3 × 10^-5 M test compound): 88%

COc1ccc(N(C(=O)CN2C(=O)C(C)(Cc3n[nH]c4ccccc34)C(=O)N(c3cccnc3)c3ccccc32)C(C)C)cc1 (centres unmarked) [Example 76, 2-[3-(1H-indazol-3-ylmethyl)-3-methyl-2,4-dioxo-5-pyridin-3-yl-2,3,4,5-tetrahydro-benzo[b][1,4]diazepin-1-yl]-N-isopropyl-N-(4-methoxy-phenyl)-acetamide]
%Contraction (1 × 10^-6 M) (1 × 10^-6 M test compound): 93% | % Contraction (3 × 10^-5 M) (3 × 10^-5 M test compound): 95%

CC(C)N(C(=O)CN1C(=O)C(Cc2n[nH]c3ccccc23)C(=O)N(c2ccccc2)c2ccccc21)c1ccc2c(c1)OCO2 (centres unmarked) [Example 77, 2-[3-(1H-Indazol-3-ylmethyl)-2,4-dioxo-5-phenyl-2,3,4,5-tetrahydrobenzo[b][1,4]diazepin-1-yl]-N-isopropyl-N-(3,4-methylenedioxy-phenyl) acetamide]
activation at 1 µM (1 × 10^-6 M test compound): 78% | activation at 30 µM (3 × 10^-5 M test compound): 120%

COc1ccccc1N(C(=O)CN1C(=O)C(Cc2n[nH]c3ccccc23)C(=O)N(c2ccccc2)c2ccccc21)C(C)C (centres unmarked) [Example 78, 2-[3-(1H-Indazol-3-ylmethyl)-2,4-dioxo-5-phenyl-2,3,4,5-tetrahydrobenzo[b][1,4]diazepin-1-yl]-N-isopropyl-N-(2-methoxy-phenyl) acetamide]
activation at 1 µM (1 × 10^-6 M test compound): 43%

COc1cccc(N(C(=O)CN2C(=O)C(Cc3n[nH]c4ccccc34)C(=O)N(c3ccccc3)c3ccccc32)C(C)C)c1 (centres unmarked) [Example 79, 2-[3-(1H-Indazol-3-ylmethyl)-2,4-dioxo-5-phenyl-2,3,4,5-tetrahydrobenzo[b][1,4]diazepin-1-yl]-N-isopropyl-N-(3-methoxy-phenyl) acetamide]
activation at 1 µM (1 × 10^-6 M test compound): 92% | activation at 30 µM (3 × 10^-5 M test compound): 93%

COc1ccc(N(C(=O)CN2C(=O)C(Cc3n[nH]c4ccccc34)C(=O)N(c3ccncc3)c3ccccc32)C(C)C)cc1 (centres unmarked) [Example 80, 2-[3-(1H-Indazol-3-ylmethyl)-2,4-dioxo-5-pyridin-4-yl-2,3,4,5-tetrahydro-benzo[b][1,4]diazepin-1-yl]-N-isopropyl-N-(4-methoxy-phenyl)-acetamide]
activation at 1 µM (1 × 10^-6 M test compound): 81% | activation at 30 µM (3 × 10^-5 M test compound): 73%

COc1ccc(N(C(=O)CN2C(=O)C(Cc3n[nH]c4ccccc34)C(=O)N(c3cccc(F)c3)c3ccccc32)C(C)C)cc1 (centres unmarked) [Example 81, 2-[5-(3-Fluoro-phenyl)-3-(1H-indazol-3-ylmethyl)-2,4-dioxo-2,3,4,5-tetrahydro-benzo[b][1,4]diazepin-1-yl]-N-isopropyl-N-(4-methoxy-phenyl)-acetamide]
activation at 1 µM (1 × 10^-6 M test compound): 97% | activation at 30 µM (3 × 10^-5 M test compound): 96%

COc1ccc(N(C(=O)CN2C(=O)C(COCc3ccccc3)C(=O)N(c3ccccc3)c3ccccc32)C(C)C)cc1 (centres unmarked) [Example 82, 2-[3-(Benzyloxymethyl)-2,4-dioxo-5-phenyl-2,3,4,5-tetrahydro-benzo[b][1,4]diazepin-1-yl]-N-isopropyl-N-(4-methoxy-phenyl)-acetamide]
activation at 1 µM (1 × 10^-6 M test compound): 69% | activation at 30 µM (3 × 10^-5 M test compound): 89%

CC(C)N(C(=O)CN1C(=O)C(Cc2n[nH]c3ccccc23)C(=O)N(c2cccnc2)c2ccccc21)c1ccccc1 (centres unmarked) [Example 83, 2-[3-(1H-Indazol-3-ylmethyl)-2,4-dioxo-5-pyridin-3-yl-2,3,4,5-tetrahydrobenzo[b][1,4]diazepin-1-yl]-N-isopropyl-N-phenyl acetamide]
activation at 1 µM (1 × 10^-6 M test compound): 85% | activation at 30 µM (3 × 10^-5 M test compound): 97%

COc1ccc(N(C(=O)CN2C(=O)C(C)(CC(=O)Nc3ccccc3)C(=O)N(c3cccnc3)c3ccccc32)C(C)C)cc1 (centres unmarked) [Example 84, N-Isopropyl-N-[4-methoxyphenyl]-2-[3-methyl-2,4-dioxo-3-phenylcarbamoylmethyl-5-pyridin-3-yl-2,3,4,5-tetrahydrobenzo[b][1,4]diazepin-1-yl) acetamide]
activation at 1 µM (1 × 10^-6 M test compound): 96% | activation at 30 µM (3 × 10^-5 M test compound): 96%
